Experimental data as given in patent publication US20240083897A1, “GCN2 MODULATING COMPOUNDS AND USES THEREOF” (HiberCell, Inc., priority 2021, published 2024).

molecular target: GCN2 (Homo sapiens (Human), UniProt Q9P2K8); test: TR-FRET biochemical assay for inhibition of GCN2; conditions: not given
Sequence (Q9P2K8 whole entry): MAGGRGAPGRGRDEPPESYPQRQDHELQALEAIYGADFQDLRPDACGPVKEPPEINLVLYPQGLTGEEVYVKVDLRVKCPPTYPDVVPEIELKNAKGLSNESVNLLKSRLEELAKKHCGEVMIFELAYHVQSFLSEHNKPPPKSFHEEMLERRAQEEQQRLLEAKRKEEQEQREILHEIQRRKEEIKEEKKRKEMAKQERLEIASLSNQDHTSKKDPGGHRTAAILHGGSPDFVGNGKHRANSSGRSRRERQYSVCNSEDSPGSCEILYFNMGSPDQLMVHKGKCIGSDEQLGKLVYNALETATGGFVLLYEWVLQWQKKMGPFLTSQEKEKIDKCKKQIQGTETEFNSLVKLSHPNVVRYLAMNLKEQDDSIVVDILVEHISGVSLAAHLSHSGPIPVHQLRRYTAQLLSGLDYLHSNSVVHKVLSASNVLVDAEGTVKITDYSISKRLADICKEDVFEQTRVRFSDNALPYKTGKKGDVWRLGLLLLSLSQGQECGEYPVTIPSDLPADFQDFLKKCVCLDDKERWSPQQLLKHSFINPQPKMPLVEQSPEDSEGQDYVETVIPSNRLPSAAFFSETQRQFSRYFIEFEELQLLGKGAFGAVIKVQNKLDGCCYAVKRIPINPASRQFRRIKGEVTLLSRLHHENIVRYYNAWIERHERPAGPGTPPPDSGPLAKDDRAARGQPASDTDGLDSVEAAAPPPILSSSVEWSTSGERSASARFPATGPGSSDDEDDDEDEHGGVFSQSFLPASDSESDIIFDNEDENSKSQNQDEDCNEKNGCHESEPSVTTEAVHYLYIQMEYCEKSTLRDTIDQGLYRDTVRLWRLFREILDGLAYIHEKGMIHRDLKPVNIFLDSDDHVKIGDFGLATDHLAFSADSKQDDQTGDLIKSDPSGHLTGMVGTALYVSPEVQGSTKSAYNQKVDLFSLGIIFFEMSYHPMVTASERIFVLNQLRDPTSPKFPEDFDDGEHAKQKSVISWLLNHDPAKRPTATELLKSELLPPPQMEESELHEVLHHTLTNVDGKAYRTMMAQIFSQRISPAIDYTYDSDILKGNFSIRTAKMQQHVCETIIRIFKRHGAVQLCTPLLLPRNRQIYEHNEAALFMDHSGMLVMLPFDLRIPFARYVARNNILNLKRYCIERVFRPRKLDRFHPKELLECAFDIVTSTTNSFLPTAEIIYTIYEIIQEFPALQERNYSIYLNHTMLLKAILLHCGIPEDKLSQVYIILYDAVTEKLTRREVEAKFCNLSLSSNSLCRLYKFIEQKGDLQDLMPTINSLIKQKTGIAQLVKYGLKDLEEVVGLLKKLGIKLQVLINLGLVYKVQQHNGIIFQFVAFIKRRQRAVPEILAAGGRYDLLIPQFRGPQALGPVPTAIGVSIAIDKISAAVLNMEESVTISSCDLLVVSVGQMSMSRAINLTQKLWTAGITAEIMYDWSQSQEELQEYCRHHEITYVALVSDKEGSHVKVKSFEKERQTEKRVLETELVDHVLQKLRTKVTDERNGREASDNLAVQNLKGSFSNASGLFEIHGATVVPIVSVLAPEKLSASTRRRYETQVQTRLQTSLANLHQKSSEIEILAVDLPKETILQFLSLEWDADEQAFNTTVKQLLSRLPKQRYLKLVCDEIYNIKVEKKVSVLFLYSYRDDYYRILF

SMILES | IC50
COc1ncc(C#N)cc1S(=O)(=O)Nc1ccc(F)c([C@H]2CCc3c(-c4nnc(C)[nH]4)ncn3C2)c1F [Compound 135-2, 5-cyano-N-[2,4-difluoro-3-[(6R)-1-(5-methyl-4H-1,2,4-triazol-3-yl)-5H,6H,7H,8H-imidazo[1,5-a]pyridin-6-yl]phenyl]-2-methoxypyridine-3-sulfonamide] | 50 to 500 nM
CNC(=O)c1ncn2cc(-c3c(F)ccc(NS(=O)(=O)c4cc(Cl)cnc4OCC(F)(F)F)c3F)ncc12 [Compound 182, 6-[3-[5-chloro-2-(2,2,2-trifluoroethoxy)pyridine-3-sulfonamido]-2,6-difluorophenyl]-N-methylimidazo[1,5-a]pyrazine-1-carboxamide] | 500 to 1000 nM
COc1ncc(Cl)cc1S(=O)(=O)Nc1ccc(F)c(-c2ccc3c(C(C)O)ncn3c2)c1F (stereo not drawn) [Compound 100, 5-chloro-N-[2,4-difluoro-3-[1-(1-hydroxyethyl)imidazo[1,5-a]pyridin-6-yl]phenyl]-2-methoxypyridine-3-sulfonamide] | 500 to 1000 nM
CNC(=O)c1ncn2cc(-c3c(F)ccc(NS(=O)(=O)c4cc(Cl)cnc4OC)c3F)sc12 [Compound 120, 2-[3-(5-chloro-2-methoxypyridine-3-sulfonamido)-2,6-difluorophenyl]-N-methylimidazo[4,3-b][1,3]thiazole-7-carboxamide] | 500 to 1000 nM
CNC(=O)c1ncn2cc(-c3c(F)ccc(NS(=O)(=O)c4cc(Cl)cnc4OC)c3C#N)ncc12 [Compound 117, 6-[3-(5-chloro-2-methoxypyridine-3-sulfonamido)-2-cyano-6-fluorophenyl]-N-methylimidazo[1,5-a]pyrazine-1-carboxamide] | 50 to 500 nM
CNC(=O)c1ncn2c1CN(C)[C@@H](c1c(F)ccc(NS(=O)(=O)c3cc(Cl)cnc3OC)c1F)C2 (single isomer, unassigned) [Compound 33-2] | 500 to 1000 nM
CNC(=O)c1ncn2c1CC[C@@H](c1c(F)ccc(NS(=O)(=O)c3cc(C#N)cnc3OC)c1F)C2 [Compound 68-2, (S)-6-(3-((5-cyano-2-methoxypyridine)-3-sulfonamido)-2,6-difluorophenyl)-N-methyl-5,6,7,8-tetrahydroimidazo[1,5-a]pyridine-1-carboxamide] | 50 to 500 nM
COc1ncc(Cl)cc1S(=O)(=O)Nc1ccc(F)c([C@H]2Cn3cnc(-c4ncc[nH]4)c3CN2C)c1F [Compound 73-2, 5-chloro-N-[2,4-difluoro-3-[(6S)-1-(1H-imidazol-2-yl)-7-methyl-5H,6H,8H-imidazo[1,5-a]pyrazin-6-yl]phenyl]-2-methoxypyridine-3-sulfonamide] | 50 to 500 nM
CNC(=O)c1ncn2cc(-c3c(F)ccc(NS(=O)(=O)c4cc(C#N)cnc4OC)c3F)ncc12 [Compound 92, 6-[3-(5-cyano-2-methoxypyridine-3-sulfonamido)-2,6-difluorophenyl]-N-methylimidazo[1,5-a]pyrazine-1-carboxamide] | 50 to 500 nM
COc1ncc(Cl)cc1S(=O)(=O)Nc1ccc(F)c([C@@H]2Cn3cnc(-c4ncc[nH]4)c3CN2C)c1F [Compound 73-1, 5-chloro-N-[2,4-difluoro-3-[(6R)-1-(1H-imidazol-2-yl)-7-methyl-5H,6H,8H-imidazo[1,5-a]pyrazin-6-yl]phenyl]-2-methoxypyridine-3-sulfonamide] | 50 to 500 nM

same assay, conditions: GCN2 2 nM, 100 nM GFP-eIF2a, 150 μM ATP, TR-FRET

SMILES | IC50
COc1ncc(Cl)cc1S(=O)(=O)Nc1ccc(F)c([C@@H]2CCc3c(-c4nnc(C)[nH]4)ncn3C2)c1F [Compound 130-1, 5-chloro-N-[2,4-difluoro-3-[(6S)-1-(5-methyl-4H-1,2,4-triazol-3-yl)-5H,6H,7H,8H-imidazo[1,5-a]pyridin-6-yl]phenyl]-2-methoxypyridine-3-sulfonamide] | < 50 nM
O=S(=O)(Nc1ccc(F)c(-c2ccc3c(-c4ncc[nH]4)ncn3c2)c1F)c1cc(F)cc2c1CCC2O (stereo not drawn) [Compound 28, N-[2,4-difluoro-3-[1-(1H-imidazol-2-yl)imidazo[1,5-a]pyridin-6-yl]phenyl]-6-fluoro-1-hydroxy-2,3-dihydro-1H-indene-4-sulfonamide] | < 50 nM
CNC(=O)c1ncn2c(OC)c(-c3c(F)ccc(NS(=O)(=O)c4cc(Cl)cnc4OC)c3F)ccc12 [Compound 15, 6-[3-(5-chloro-2-methoxypyridine-3-sulfonamido)-2,6-difluorophenyl]-5-methoxy-N-methylimidazo[1,5-a]pyridine-1-carboxamide] | > 1000 nM
COc1ncc(Cl)cc1S(=O)(=O)Nc1ccc(F)c(-c2ccc3c(-c4nnc(C(C)C)[nH]4)ncn3c2)c1F [Compound 88, 5-chloro-N-[2,4-difluoro-3-[1-(5-isopropyl-4H-1,2,4-triazol-3-yl)imidazo[1,5-a]pyridin-6-yl]phenyl]-2-methoxypyridine-3-sulfonamide] | < 50 nM
Cc1ncc(F)cc1S(=O)(=O)Nc1ccc(F)c([C@H]2CCc3c(-c4ncc[nH]4)ncn3C2)c1F [Compound 80-1, N-[2,4-difluoro-3-[(6R)-1-(1H-imidazol-2-yl)-5H,6H,7H,8H-imidazo[1,5-a]pyridin-6-yl]phenyl]-5-fluoro-2-methylpyridine-3-sulfonamide] | < 50 nM
COc1ncc(C#N)cc1S(=O)(=O)Nc1ccc(F)c(-c2ccc3c(-c4nnc(C)[nH]4)ncn3c2)c1F [Compound 59, 5-cyano-N-[2,4-difluoro-3-[1-(5-methyl-4H-1,2,4-triazol-3-yl)imidazo[1,5-a]pyridin-6-yl]phenyl]-2-methoxypyridine-3-sulfonamide] | < 50 nM
CNC(=O)c1ncn2nc(-c3c(F)ccc(NS(=O)(=O)c4cc(Cl)cnc4C)c3F)ccc12 [Compound 5, 2-[3-(5-chloro-2-methylpyridine-3-sulfonamido)-2,6-difluorophenyl]-N-methylimidazo[1,5-b]pyridazine-5-carboxamide] | < 50 nM
COc1ncc(Cl)cc1S(=O)(=O)Nc1ccc(F)c(-c2cn3cnc(C(=O)NCC4CC4)c3cn2)c1F [Compound 166, 6-[3-(5-chloro-2-methoxypyridine-3-sulfonamido)-2,6-difluorophenyl]-N-(cyclopropylmethyl)imidazo[1,5-a]pyrazine-1-carboxamide] | < 50 nM
COc1ncc(C#N)cc1S(=O)(=O)Nc1ccc(F)c(-c2ccc3c(-c4nnc[nH]4)ncn3c2)c1F [Compound 71, 5-cyano-N-[2,4-difluoro-3-[1-(4H-1,2,4-triazol-3-yl)imidazo[1,5-a]pyridin-6-yl]phenyl]-2-methoxypyridine-3-sulfonamide] | < 50 nM
COc1ncc(Cl)cc1S(=O)(=O)Nc1ccc(F)c(-c2cn3cnc(C(=O)NCC(F)(F)F)c3cn2)c1F [Compound 159, 6-[3-(5-chloro-2-methoxypyridine-3-sulfonamido)-2,6-difluorophenyl]-N-(2,2,2-trifluoroethyl)imidazo[1,5-a]pyrazine-1-carboxamide] | < 50 nM
Cc1ncc(F)cc1S(=O)(=O)Nc1ccc(F)c(-c2ccc3c(-c4nc5c([nH]4)CCCC5)ncn3c2)c1F [Compound 149, N-(2,4-difluoro-3-(1-(4,5,6,7-tetrahydro-1H-benzo[d]imidazol-2-yl)imidazo[1,5-a]pyridin-6-yl)phenyl)-5-fluoro-2-methylpyridine-3-sulfonamide] | < 50 nM
Cc1ncc(Cl)cc1S(=O)(=O)Nc1ccc(F)c([C@H]2CCc3c(-c4ncc[nH]4)ncn3C2)c1F (single isomer, unassigned) [Compound 84-1] | < 50 nM
COc1ncc(Cl)cc1S(=O)(=O)Nc1ccc(F)c(-c2ccc3c(-c4nc(Cl)c[nH]4)ncn3c2)c1F [Compound 52, 5-chloro-N-[3-[1-(4-chloro-1H-imidazol-2-yl)imidazo[1,5-a]pyridin-6-yl]-2,4-difluorophenyl]-2-methoxypyridine-3-sulfonamide] | < 50 nM
Cc1ncc(Cl)cc1S(=O)(=O)Nc1ccc(F)c(-c2cn3cnc(-c4nc5ccccc5[nH]4)c3cn2)c1F [Compound 113, N-[3-[1-(1H-1,3-benzodiazol-2-yl)imidazo[1,5-a]pyrazin-6-yl]-2,4-difluorophenyl]-5-chloro-2-methylpyridine-3-sulfonamide] | < 50 nM
COc1ncc(Cl)cc1S(=O)(=O)Nc1ccc(F)c(-c2ccc3c(-c4ncc(C)[nH]4)ncn3c2)c1F [Compound 48, 5-chloro-N-[2,4-difluoro-3-[1-(4-methyl-3H-imidazol-2-yl)imidazo[1,5-a]pyridine-6-yl]phenyl]-2-methoxypyridine-3-sulfonamide] | < 50 nM
Cc1ncc(F)cc1S(=O)(=O)Nc1ccc(F)c(-c2cn3cnc(-c4nc5ccccc5[nH]4)c3cn2)c1F [Compound 114, N-[3-[1-(1H-1,3-benzodiazol-2-yl)imidazo[1,5-a]pyrazin-6-yl]-2,4-difluorophenyl]-5-fluoro-2-methylpyridine-3-sulfonamide] | < 50 nM
CNC(=O)c1ncn2nc(-c3c(F)ccc(NS(=O)(=O)c4cc(Cl)cnc4C)c3Cl)ccc12 [Compound 139, 2-[2-chloro-3-(5-chloro-2-methylpyridine-3-sulfonamido)-6-fluorophenyl]-N-methylimidazo[1,5-b]pyridazine-5-carboxamide] | < 50 nM
COc1ncc(Cl)cc1S(=O)(=O)Nc1ccc(F)c(-c2ccn3c(-c4ncc[nH]4)ncc3c2F)c1F [Compound 41, 5-chloro-N-[2,4-difluoro-3-[8-fluoro-3-(1H-imidazol-2-yl)imidazo[1,5-a]pyridin-7-yl]phenyl]-2-methoxypyridine-3-sulfonamide] | < 50 nM
COc1ncc(Cl)cc1S(=O)(=O)Nc1ccc(F)c(-c2ccc3c(-c4nc(Cl)c[nH]4)ncn3c2F)c1F [Compound 116, 5-chloro-N-[3-[1-(4-chloro-1H-imidazol-2-yl)-5-fluoroimidazo[1,5-a]pyridin-6-yl]-2,4-difluorophenyl]-2-methoxypyridine-3-sulfonamide] | < 50 nM
COc1ncc(C#N)cc1S(=O)(=O)Nc1ccc(F)c(-c2ccc3c(-c4ncc[nH]4)ncn3c2)c1F [Compound 20, 5-cyano-N-[2,4-difluoro-3-[1-(1H-imidazol-2-yl)imidazo[1,5-a]pyridin-6-yl]phenyl]-2-methoxypyridine-3-sulfonamide] | < 50 nM
